Source: ChEMBL document CHEMBL1201862, “PubChem BioAssay data set” (2004)
Active and inactive are the calls of the source.

Experiments:
[1] = test system: HeLa; assay: viability loss in HeLa cells – cell-based, 24 h, cherry-picked samples, cytotoxicity control, dose response (AID 504726); assay type: functional; conditions: Homo sapiens;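 also: potency for cytotoxicity as loss of luminescence signal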
[2] = target: T1, Estrogen receptor (Homo sapiens, UniProt P03372);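 also: potency for inhibiting coactivator peptide recruitment to the receptor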
T1 sequence (P03372 whole entry): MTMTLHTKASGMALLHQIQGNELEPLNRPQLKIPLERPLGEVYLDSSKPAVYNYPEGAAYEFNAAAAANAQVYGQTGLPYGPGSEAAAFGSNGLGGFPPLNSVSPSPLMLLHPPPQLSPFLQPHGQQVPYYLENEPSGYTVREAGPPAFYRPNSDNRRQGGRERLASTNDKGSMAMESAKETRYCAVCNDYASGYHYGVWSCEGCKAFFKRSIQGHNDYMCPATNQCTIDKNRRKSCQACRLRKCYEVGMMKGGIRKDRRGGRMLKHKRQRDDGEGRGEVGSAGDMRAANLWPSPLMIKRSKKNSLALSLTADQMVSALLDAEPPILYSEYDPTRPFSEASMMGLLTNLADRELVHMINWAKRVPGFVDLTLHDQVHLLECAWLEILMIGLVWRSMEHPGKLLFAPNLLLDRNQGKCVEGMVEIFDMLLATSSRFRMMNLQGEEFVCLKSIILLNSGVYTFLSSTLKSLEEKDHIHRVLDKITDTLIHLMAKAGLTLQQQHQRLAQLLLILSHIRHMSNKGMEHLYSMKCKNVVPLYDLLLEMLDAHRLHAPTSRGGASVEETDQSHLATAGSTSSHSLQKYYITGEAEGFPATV

[3] = test system: HEK293; assay: cells; assay type: functional, cell-based; conditions: Homo sapiens
[4] = test system: Streptococcus; assay: GAS UMAA2166 growth inhibition – luminescence, BacTiterGlo, counter-screen for streptokinase expression inhibitor project, dose response (AID 1915); assay type: functional, organism-based;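 also: potency for reduction of bacterial viability or growth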
[5] = target: Nucleotide-binding oligomerization domain-containing protein 2 (Homo sapiens, UniProt Q9HC29); assay: inhibition of NOD2-driven NF-kB reporter – cell-based, luminescence, uHTS, HEK293 (AID 1566); assay type: functional
[6] = test system: HEK293; assay: cells; assay type: functional, cell-based; conditions: Homo sapiens; remark: listed apart in the source
[7] = test system: HEK293; assay: NOD2 signaling inhibitors in MDP-stimulated cells, cell-based, uHTS, luminescence (AID 2001); assay type: functional; conditions: Homo sapiens
[8] = test system: HEK293; assay: inhibition of NOD1-driven NF-kB reporter – cell-based, luminescence, uHTS, primary screen (AID 1578); assay type: functional; conditions: Homo sapiens
[9] = test system: HEK293; assay: cells; assay type: functional, cell-based; conditions: Homo sapiens; remark: listed apart in the source
[10] = target: T2, Streptokinase A (Streptococcus pyogenes serotype M1, UniProt P10520); assay: viability-normalized secreted streptokinase activity reduction – plasminogen activation absorbance, OD405, dose response (AID 1914); assay type: functional, Streptococcus pyogenes M1 GAS;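 also: secreted streptokinase activity via plasminogen activation per viability signal from cell pellet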
T2 sequence (P10520 whole entry): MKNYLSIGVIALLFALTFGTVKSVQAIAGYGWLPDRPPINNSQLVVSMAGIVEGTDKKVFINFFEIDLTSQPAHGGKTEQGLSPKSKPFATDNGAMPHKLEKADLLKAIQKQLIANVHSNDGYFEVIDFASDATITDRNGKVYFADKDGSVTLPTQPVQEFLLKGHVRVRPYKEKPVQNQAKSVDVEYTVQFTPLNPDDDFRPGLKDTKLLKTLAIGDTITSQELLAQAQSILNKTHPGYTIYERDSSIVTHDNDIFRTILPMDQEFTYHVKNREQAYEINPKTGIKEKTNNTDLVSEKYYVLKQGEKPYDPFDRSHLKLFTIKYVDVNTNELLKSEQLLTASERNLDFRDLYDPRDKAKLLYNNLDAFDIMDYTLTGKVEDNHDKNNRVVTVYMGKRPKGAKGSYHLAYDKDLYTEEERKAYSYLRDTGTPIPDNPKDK

[11] = test system: Streptococcus sp. 'group A'; assay: Streptococcus pyogenes SK(-)GAS viability under kanamycin – luminescence, BacTiterGlo, confirmation, counter-screen for streptokinase expression inhibitor project, dose response (AID 1900); assay type: functional, organism-based
[12] = target: Estrogen receptor beta (Homo sapiens, UniProt Q92731);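 also: recombinant ER-beta bound to coactivator SRC1 peptide in presence of estradiol agonist; inhibitors block coactivator peptide binding and lower the FRET signal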
[13] = target: T3, Bcl-2-related protein A1 (Mus musculus, UniProt Q07440); assay type: functional;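 also: confirmatory dose–response counterscreen on Bfl-1, used to check hits from a UBC13 polyubiquitin inhibitor campaign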
T3 sequence (Q07440 whole entry): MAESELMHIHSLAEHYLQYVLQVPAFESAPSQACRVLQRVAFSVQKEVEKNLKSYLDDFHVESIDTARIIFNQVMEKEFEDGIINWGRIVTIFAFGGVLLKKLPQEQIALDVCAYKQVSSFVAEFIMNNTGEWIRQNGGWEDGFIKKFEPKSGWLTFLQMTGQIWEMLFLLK

[14] = target: T4, Ubiquitin-conjugating enzyme E2 N (Homo sapiens, UniProt P61088); assay type: functional;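 also: Dose-response confirmation in a TR-FRET assay detecting UBC13-driven polyubiquitin chain formation, inhibition measured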
T4 sequence (P61088 whole entry): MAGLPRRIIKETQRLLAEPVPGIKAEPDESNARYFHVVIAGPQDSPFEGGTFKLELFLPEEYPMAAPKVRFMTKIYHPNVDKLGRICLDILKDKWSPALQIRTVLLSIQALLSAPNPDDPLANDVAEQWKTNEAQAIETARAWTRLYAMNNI

[15] = target: T5, Alkaline phosphatase, tissue-nonspecific isozyme (Homo sapiens, UniProt P05186); assay: potency against alkaline phosphatase TNAP – biochemical, luminescent, dose response, SAR follow-up (AID 1056)
T5 sequence (P05186 whole entry): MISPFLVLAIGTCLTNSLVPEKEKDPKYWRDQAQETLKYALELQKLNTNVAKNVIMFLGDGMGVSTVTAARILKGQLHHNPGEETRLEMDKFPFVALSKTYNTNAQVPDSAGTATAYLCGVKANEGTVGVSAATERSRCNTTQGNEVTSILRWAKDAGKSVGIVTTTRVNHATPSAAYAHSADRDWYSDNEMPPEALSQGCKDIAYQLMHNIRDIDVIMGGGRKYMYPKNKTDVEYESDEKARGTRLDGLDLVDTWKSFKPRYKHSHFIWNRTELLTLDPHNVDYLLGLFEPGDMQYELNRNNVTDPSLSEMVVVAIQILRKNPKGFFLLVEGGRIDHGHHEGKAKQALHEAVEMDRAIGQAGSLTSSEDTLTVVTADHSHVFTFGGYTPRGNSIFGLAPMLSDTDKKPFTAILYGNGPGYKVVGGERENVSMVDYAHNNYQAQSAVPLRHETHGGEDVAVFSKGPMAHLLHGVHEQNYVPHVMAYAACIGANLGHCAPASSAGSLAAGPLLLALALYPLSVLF

[16] = target: Alkaline phosphatase, placental type (Homo sapiens, UniProt P05187); assay: human placental alkaline phosphatase inhibition – biochemical, luminescence, confirmation (AID 1512); assay type: functional
[17] = target: T6, X-box-binding protein 1 (Homo sapiens, UniProt P17861); assay type: functional, Cricetulus griseus;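 also: confirmatory dose-response counter-screen serving a CHOP assay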
T6 sequence (P17861 whole entry): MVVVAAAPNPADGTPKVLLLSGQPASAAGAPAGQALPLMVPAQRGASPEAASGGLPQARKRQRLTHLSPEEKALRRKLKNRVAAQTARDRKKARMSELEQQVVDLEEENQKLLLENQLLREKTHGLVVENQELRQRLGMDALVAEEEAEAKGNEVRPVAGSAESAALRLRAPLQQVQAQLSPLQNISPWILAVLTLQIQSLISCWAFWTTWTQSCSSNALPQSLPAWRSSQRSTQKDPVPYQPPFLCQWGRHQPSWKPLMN

[18] = target: Prothrombin (Homo sapiens, UniProt P00734); assay: Thrombin 1536 HTS Dose Response Confirmation. [Related pubchem assays: 1046 (Thrombin 1536 HTS; hits were confirmed in this assay)]; assay type: functional
[19] = target: NS3 (Hepatitis C virus, UniProt A3EZJ3); assay: PubChem AID 2173; design: species or system Hepacivirus hominis
[20] = Luminescence Cell-Based Dose Retest to Confirm Inhibitors of Cancer Stem Cells. [Related pubchem assays (depositor defined):AID2717, AID2721]; assay type: functional; conditions: Homo sapiens
[21] = target: Peroxisome proliferator-activated receptor gamma/Nuclear receptor coactivator 1 (Homo sapiens, UniProt P37231); assay type: functional;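 also: agonist potency as compounds enhance coactivator SRC-1 recruitment to PPARgamma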
[22] = target: Peroxisome proliferator-activated receptor gamma/Nuclear receptor coactivator 3 (Homo sapiens, UniProt P37231); assay type: functional;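 also: agonist potency for raising coactivator recruitment to the receptor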
[23] = target: T7, fMet-Leu-Phe receptor (Homo sapiens, UniProt P21462); assay: formyl peptide receptor binders – dose response (AID 519); assay type: functional
T7 sequence (P21462 whole entry): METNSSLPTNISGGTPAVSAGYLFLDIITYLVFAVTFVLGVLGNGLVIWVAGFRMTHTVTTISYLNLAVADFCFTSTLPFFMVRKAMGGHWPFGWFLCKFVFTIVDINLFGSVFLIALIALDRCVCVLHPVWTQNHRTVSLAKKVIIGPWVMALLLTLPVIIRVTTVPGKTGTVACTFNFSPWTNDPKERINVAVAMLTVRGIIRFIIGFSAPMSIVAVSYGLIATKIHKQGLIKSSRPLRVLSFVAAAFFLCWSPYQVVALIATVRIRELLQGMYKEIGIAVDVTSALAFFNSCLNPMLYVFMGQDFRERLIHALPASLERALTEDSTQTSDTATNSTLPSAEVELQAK

[24] = viability loss of HMLE_sh_eGFP cells – cell-based, luminescence, counter-screen for HMLE_sh_ECad selective toxicity project, dose response (AID 463074); assay type: functional, Homo sapiens;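 also: HMLE human mammary epithelial cells expressing control shRNA against eGFP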
[25] = target: Peroxisome proliferator-activated receptor gamma/Nuclear receptor coactivator 2 (Homo sapiens, UniProt P37231); assay type: functional;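 also: agonist potency for raising coactivator recruitment to the receptor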
[26] = target: Paired box protein Pax-8 (Homo sapiens, UniProt Q06710); assay: PAX8 transcriptional activity inhibition in RMG-I – RMG-I cells, luciferase, cherry-pick, dose response (AID 687027); assay type: functional, cell-based;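 also: luciferase reporter driven by Pax8 target thyroperoxidase promoter measured by SteadyGlo luminescence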
[27] = test system: Vero; assay: cells; assay type: functional; conditions: Chlorocebus sabaeus
[28] = test system: Vero; assay: cells; assay type: functional, cell-based; conditions: Chlorocebus sabaeus

Chain of Alkaline phosphatase, placental type (P05187 whole entry): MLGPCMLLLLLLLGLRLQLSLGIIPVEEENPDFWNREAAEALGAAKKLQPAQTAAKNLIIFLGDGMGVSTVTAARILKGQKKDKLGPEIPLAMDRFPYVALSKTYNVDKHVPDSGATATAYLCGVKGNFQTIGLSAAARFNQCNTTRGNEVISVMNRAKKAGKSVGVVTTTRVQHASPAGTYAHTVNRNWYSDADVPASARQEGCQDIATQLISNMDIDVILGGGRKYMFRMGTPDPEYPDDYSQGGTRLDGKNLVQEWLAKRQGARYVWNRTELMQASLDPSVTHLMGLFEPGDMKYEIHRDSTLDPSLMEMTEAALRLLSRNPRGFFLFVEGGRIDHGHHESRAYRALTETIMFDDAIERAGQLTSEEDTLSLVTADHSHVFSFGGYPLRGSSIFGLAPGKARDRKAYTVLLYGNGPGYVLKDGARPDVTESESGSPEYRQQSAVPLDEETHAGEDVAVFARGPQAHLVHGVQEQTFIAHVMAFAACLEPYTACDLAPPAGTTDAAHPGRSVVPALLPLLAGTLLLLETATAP
Chain of Nucleotide-binding oligomerization domain-containing protein 2 (Q9HC29 whole entry, the tested form may be a part): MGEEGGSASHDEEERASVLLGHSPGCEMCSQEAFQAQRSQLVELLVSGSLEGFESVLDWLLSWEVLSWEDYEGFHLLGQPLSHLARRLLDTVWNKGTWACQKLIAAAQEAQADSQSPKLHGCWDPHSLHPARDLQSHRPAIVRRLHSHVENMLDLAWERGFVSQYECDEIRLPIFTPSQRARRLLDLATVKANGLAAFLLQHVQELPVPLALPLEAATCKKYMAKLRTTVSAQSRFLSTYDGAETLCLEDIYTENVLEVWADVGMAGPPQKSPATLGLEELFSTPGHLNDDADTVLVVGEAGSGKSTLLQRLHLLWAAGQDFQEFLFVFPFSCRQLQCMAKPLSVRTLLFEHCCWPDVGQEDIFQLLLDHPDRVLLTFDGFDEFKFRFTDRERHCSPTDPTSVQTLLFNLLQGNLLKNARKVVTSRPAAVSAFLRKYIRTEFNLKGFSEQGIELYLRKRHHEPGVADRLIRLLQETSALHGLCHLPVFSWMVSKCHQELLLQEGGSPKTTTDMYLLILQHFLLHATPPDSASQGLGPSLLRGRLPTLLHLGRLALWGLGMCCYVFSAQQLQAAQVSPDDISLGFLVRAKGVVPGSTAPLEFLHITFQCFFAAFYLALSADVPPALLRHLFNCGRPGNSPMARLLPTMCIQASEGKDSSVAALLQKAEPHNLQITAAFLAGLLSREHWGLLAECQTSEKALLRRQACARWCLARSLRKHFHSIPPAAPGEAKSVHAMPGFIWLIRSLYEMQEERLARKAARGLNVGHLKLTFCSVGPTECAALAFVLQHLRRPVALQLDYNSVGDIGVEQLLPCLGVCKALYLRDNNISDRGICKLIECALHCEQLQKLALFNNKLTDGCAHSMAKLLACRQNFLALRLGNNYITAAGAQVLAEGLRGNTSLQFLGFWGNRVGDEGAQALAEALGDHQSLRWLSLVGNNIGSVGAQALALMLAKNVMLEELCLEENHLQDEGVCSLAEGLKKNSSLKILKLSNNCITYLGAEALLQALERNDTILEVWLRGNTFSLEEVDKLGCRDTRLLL
Chain of NS3 (A3EZJ3 whole entry): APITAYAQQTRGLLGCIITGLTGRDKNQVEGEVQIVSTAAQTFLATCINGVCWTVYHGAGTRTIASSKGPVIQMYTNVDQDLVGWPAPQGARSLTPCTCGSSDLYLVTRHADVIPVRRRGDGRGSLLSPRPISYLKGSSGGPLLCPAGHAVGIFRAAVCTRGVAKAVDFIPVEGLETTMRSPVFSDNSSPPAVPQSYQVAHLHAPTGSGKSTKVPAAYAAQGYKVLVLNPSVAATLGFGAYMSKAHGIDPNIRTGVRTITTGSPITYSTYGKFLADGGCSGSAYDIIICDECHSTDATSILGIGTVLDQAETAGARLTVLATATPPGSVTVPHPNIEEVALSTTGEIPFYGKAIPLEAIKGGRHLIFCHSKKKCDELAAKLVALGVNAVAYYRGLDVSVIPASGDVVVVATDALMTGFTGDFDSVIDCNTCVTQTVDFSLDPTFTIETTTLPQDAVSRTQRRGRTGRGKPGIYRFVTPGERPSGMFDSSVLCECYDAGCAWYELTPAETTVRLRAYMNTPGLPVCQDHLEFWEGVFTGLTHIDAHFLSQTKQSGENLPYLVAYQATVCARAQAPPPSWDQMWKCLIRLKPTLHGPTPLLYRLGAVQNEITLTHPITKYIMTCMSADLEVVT
Chain of Peroxisome proliferator-activated receptor gamma/Nuclear receptor coactivator 2 (P37231 whole entry): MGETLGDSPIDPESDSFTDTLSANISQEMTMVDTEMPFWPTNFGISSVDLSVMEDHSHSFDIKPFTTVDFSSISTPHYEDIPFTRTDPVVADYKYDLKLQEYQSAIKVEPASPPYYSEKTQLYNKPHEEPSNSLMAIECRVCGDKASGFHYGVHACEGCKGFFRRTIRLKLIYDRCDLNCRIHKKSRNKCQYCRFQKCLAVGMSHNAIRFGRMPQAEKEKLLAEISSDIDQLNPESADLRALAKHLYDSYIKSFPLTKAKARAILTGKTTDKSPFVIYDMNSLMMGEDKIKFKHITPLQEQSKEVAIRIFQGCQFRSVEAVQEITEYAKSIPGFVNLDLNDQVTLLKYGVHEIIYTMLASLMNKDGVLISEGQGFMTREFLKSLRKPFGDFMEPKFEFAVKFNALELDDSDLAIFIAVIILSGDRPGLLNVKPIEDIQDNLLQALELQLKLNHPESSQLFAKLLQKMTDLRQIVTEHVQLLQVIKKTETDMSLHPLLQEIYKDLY
Chain of Peroxisome proliferator-activated receptor gamma/Nuclear receptor coactivator 2 (Q15596 whole entry, further chain): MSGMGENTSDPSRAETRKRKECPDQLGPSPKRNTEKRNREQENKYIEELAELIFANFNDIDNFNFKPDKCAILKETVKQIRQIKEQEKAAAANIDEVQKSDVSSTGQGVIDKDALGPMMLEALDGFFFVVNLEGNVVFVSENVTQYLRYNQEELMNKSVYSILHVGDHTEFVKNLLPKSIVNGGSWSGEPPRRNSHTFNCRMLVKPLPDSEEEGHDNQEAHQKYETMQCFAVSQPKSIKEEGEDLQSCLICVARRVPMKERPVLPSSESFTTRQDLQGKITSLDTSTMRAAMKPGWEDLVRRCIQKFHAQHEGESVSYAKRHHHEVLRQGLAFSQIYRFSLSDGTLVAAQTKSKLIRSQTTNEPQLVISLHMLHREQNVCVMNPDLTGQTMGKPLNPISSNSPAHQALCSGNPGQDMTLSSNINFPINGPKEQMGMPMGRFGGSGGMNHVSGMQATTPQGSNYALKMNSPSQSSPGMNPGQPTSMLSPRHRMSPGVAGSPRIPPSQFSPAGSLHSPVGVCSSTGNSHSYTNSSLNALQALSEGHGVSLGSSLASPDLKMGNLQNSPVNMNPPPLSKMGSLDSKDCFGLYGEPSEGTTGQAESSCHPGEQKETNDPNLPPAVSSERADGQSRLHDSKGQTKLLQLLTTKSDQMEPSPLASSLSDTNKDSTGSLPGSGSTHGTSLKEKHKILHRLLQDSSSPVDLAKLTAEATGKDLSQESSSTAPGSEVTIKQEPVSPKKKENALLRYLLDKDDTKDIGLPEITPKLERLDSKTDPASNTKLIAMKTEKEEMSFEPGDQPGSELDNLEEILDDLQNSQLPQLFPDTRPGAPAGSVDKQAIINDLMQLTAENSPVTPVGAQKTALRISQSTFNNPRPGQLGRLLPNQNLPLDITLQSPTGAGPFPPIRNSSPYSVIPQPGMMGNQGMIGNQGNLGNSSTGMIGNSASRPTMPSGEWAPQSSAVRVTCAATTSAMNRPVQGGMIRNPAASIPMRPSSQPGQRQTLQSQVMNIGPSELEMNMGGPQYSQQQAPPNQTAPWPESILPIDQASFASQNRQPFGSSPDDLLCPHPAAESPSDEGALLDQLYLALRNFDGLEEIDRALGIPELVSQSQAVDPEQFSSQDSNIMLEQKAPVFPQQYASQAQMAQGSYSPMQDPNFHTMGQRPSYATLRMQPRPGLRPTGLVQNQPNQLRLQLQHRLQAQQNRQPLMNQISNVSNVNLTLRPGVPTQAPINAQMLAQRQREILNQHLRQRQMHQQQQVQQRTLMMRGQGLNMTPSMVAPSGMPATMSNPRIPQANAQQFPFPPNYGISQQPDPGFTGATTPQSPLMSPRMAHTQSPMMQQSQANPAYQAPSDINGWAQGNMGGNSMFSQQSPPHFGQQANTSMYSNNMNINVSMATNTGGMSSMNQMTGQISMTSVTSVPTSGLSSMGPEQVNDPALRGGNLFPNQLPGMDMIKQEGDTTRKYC
Chain of Paired box protein Pax-8 (Q06710 whole entry): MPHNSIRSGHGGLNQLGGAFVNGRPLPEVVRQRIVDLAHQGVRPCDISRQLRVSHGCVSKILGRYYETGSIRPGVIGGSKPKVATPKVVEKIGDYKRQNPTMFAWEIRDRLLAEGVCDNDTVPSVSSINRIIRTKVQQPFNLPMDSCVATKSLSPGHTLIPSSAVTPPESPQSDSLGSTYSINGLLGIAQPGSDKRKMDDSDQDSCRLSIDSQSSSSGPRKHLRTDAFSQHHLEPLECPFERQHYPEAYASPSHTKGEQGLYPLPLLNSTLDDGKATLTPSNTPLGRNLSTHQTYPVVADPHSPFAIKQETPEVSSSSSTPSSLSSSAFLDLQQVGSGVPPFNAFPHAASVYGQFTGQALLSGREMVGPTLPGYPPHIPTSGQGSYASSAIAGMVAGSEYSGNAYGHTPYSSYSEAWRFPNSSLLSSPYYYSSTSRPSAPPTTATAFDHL

Cn1c(=O)c2c(nc(SCC(=O)NCc3ccc4c(c3)OCO4)n2Cc2ccc(Cl)cc2)n(C)c1=O
AC50 [1]: 64.6 µM (active)

COc1cc(NC(=O)CSc2nc3ccccc3c(=O)n2C)ccc1NC(=O)c1ccco1
IC50 [2]: 32.5 µM (not active)

CCCCc1nc(N2CCN(C(=O)c3ccco3)CC2)c(C#N)c2c1CCCC2
IC50 [3]: 11.9 µM (active) | EC50 [4]: 14.4 µM (active) | EC50 [5]: 7.59 µM (active) | IC50 [6]: > 20 µM (inactive) | IC50 [7]: 12.2 µM (inactive) | EC50 [8]: 10.1 µM (active) | IC50 [9]: 15.6 µM (active) | EC50 [10]: 8.54 µM (active) | EC50 [11]: 7.4 µM (active)

CSCCOC(=O)c1[nH]c2c(c1C)C(=O)CC(c1ccco1)C2 (stereo not given)
IC50 [12]: > 50 µM (not active) | IC50 [2]: > 50 µM (not active)

Cc1ccc(N(C(=O)c2snc(C(N)=O)c2N)C(C(=O)NCC2CCCO2)c2c[nH]c3ccccc23)cc1 (stereo not given)
IC50 [13]: > 20 µM (inactive) | IC50 [14]: 12.1 µM (active)

Cc1cc(C)nc(SCC(=O)c2ccc(Cl)cc2Cl)n1
IC50 [15]: > 100 µM (inactive) | IC50 [16]: > 100 µM (inactive)

Cc1ccc(-c2nnc(SCC(=O)c3ccc(O)c(O)c3)n2C)cc1
IC50 [15]: > 100 µM (inactive) | IC50 [16]: 11.7 µM (active)

COc1cc(/C=N/NC(=O)Nc2ccccc2)ccc1OCCOc1ccccc1C
Absolute IC50 (XBP1) [17]: 10 µM

Cc1nc(SCC(=O)N2CCc3ccccc3C2)c2c(C)c(C)sc2n1
IC50 [18]: > 50 µM (not active) | EC50 [5]: 9.64 µM (active) | IC50 [6]: > 20 µM (inactive) | IC50 [7]: 9.12 µM (inactive) | EC50 [8]: 6.12 µM (active)

O=C(C1=C(O)C(=O)N(Cc2ccco2)C1c1cccc(Cl)c1)c1ccc2c(c1)OCCO2 (stereo not given)
IC50 [19]: 4.61 µM (active)

O=C(COc1ccccc1)Nc1ccc(Cl)c(-c2nc3ncccc3o2)c1
IC50 [2]: > 50 µM (not active)

COc1ccc(-c2nc(-c3ccc(NC(=O)c4ccc(Br)o4)cc3)no2)cc1OC
AC50 [20]: 2.21 µM (active) | EC50 [21]: > 79.4 µM (not active) | Absolute IC50 (XBP1) [17]: 10 µM | EC50 [22]: > 79.4 µM (not active) | Ki [23]: > 66.7 µM (inactive) | AC50 [24]: 22.8 µM (active) | EC50 [25]: 49.2 µM (not active)

Cc1cc(=O)[nH]c(-n2[nH]c(C)cc2=O)n1
IC50 [16]: > 100 µM (inactive)

CNc1ccc(Br)cc(C(=O)/C=C/c2cc(OC)ccc2OC)c1=O
IC50 [19]: 11.3 µM (not active) | AC50 [26]: 7.83 µM (active) | CC50 [27]: 23.1 µM (active) | IC50 [28]: 7.29 µM (active)

Cc1ccc(C)c(N2CCN(C(=O)C34CC5CC(C3)CC(n3nnc(C)n3)(C5)C4)CC2)c1
IC50 [3]: 6.27 µM (active) | EC50 [5]: 5.6 µM (active) | IC50 [6]: > 20 µM (inactive) | IC50 [7]: 4.61 µM (active) | EC50 [8]: 7.6 µM (active) | IC50 [9]: 13.1 µM (active)
